This test addresses T1, EHMT2 (Homo sapiens, UniProt Q96KQ7).
T1 construct: host or cells: MDA-MB-231
T1 sequence (Q96KQ7 1-1210): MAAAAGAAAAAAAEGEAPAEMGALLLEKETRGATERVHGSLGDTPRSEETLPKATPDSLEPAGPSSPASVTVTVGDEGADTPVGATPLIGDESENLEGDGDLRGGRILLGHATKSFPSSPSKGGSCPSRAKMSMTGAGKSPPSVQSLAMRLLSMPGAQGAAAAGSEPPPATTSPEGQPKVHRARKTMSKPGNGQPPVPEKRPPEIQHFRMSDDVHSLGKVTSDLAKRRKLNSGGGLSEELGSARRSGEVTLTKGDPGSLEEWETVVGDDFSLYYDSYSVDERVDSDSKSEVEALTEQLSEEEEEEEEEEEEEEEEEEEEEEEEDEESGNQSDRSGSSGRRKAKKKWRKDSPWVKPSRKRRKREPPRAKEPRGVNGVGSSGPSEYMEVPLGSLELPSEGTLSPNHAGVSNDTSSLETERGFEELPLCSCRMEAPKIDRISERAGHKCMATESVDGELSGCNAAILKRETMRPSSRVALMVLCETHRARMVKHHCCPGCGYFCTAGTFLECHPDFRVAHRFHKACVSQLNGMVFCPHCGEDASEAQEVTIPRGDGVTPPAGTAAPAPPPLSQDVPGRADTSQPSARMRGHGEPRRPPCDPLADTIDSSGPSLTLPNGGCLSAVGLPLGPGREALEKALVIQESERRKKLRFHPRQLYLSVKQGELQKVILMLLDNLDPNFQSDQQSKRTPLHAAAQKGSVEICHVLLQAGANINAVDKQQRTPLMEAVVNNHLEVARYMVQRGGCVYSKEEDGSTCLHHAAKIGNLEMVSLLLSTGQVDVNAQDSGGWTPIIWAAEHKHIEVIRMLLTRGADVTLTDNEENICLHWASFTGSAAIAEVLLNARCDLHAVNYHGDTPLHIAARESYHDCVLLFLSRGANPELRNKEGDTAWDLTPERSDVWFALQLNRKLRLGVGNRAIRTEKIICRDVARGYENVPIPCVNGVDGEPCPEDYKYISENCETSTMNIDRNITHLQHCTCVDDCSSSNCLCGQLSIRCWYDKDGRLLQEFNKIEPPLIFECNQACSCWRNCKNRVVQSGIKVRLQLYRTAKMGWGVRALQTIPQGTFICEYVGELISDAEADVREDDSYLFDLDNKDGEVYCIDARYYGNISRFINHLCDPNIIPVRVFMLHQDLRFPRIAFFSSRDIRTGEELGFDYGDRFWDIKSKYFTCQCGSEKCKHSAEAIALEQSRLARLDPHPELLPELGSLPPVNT
The test can be described thus: MDA-MB-231 H3K9me2 in-cell Western assay (EHMT2 ICW). The note with it: MDA-MB-231 H3K9me2 in-cell Western, read-out: EHMT2 ICW (IC50 μM). The format is cell-based. A digest of the protocol: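 For 48 h at 37 °C, breast cancer MDA-MB-231 cells were incubated with compound, then fixed and immunostained for H3K9me2, with DRAQ5 used for normalisation. Each well's signal ratio yielded percent inhibition, and IC50 values were derived by fitting a four-parameter curve.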

Drawing on patent US20210198277A1, “AMINE-SUBSTITUTED ARYL OR HETEROARYL COMPOUNDS” (Epizyme, Inc., priority 2016, published 2021), this text covers IC50 for 27 compounds.

As usually defined, the IC50 is the concentration at which inhibition is half-maximal.

Where two headings read alike, the source gives them in different places.

As to `CNc1cc(OC)nc(Nc2ccc(OC)c(OCCCN3CCCC3)c2)n1` [Compound 261, 6-methoxy-N^2-(4-methoxy-3-(3-(pyrrolidin-1-yl)propoxy)phenyl)-N^4-methylpyrimidine-2,4-diamine], under “Table III”, the IC50 is more than 10 µM.
Same read-out and setting: the result for `CNc1ccnc(Nc2ccc(F)c(OCCCN3CCCC3)c2)n1` [Compound 368] reads more than 10 µM.
Regarding `COc1ccc(Nc2nccc(NCC3CCN(CC(F)F)CC3)n2)cc1OCCCN1CCCC1` [Compound 2, N^4-((1-(2,2-difluoroethyl)piperidin-4-yl)methyl)-N^2-(4-methoxy-3-(3-(pyrrolidin-1-yl)propoxy)phenyl)pyrimidine-2,4-diamine], the IC50 (Table II) fell in the range of 0.1 to 1 µM.
Turning to `COc1ccc(Nc2nccc(NC(C)C3CCOCC3)n2)cc1OCCCN1CCCC1` (stereo not drawn) [Compound 378], the IC50 (Table III) fell in the range of 0.1 to 1 µM.
Same read-out and setting: to `CNc1ccnc(Nc2ccc3cnn(CCCN(C)C)c3c2)n1` [Compound 388, N^2-(1-(3-(dimethylamino)propyl)-1H-indazol-6-yl)-N^4-methylpyrimidine-2,4-diamine] belongs more than 10 µM; to `CNc1ccnc(Nc2ccc3c(c2)C(=O)N(CCN2CCCC2)CC3)n1` [Compound 264, 7-((4-(methylamino)pyrimidin-2-yl)amino)-2-(2-(pyrrolidin-1-yl)ethyl)-3,4-dihydroisoquinolin-1(2H)-one], more than 10 µM.
As for `c1cc(Nc2nccc(NCC3CCNCC3)n2)cc(OCCCN2CCCC2)c1` [Compound 88], the IC50 (Table II) was in the range of 1 to 10 µM.
As to `CC(C)Nc1ccnc(Nc2cccc(OCCCN3CC[C@@H](F)C3)c2)n1` [Compound 375], the IC50 (Table III) was more than 10 µM.
For the compound `COc1ccc(Nc2nccc(NC3CCOCC3)n2)cc1OCCCN1CCCC1` [Compound 5, N^2-(4-methoxy-3-(3-(pyrrolidin-1-yl)propoxy)phenyl)-N^4-(tetrahydro-2H-pyran-4-yl)pyrimidine-2,4-diamine], the IC50 (Table II) fell in the range of 0.1 to 1 µM.
Turning to `COc1ccc(Nc2nccc3[nH]ccc23)cc1OCCCN1CCCC1` [Compound 266, N-(4-methoxy-3-(3-(pyrrolidin-1-yl)propoxy)phenyl)-1H-pyrrolo[3,2-c]pyridin-4-amine], the IC50 (Table III) is 1 to 10 µM.
On the same count and under the same terms, to `CNc1cc(C)nc(Nc2ccc(OC)c(OCC3CCN(C)C3)c2)n1` (single isomer, unassigned) [Compound 418] belongs less than 0.1 µM.
Same read-out and setting: the result for `CNc1ccnc(Nc2cccc(N3CCC(N(C)C)C3)c2)n1` (stereo not drawn) [Compound 397] reads more than 10 µM; that for `CNc1cc(C)nc(Nc2ccc(OC)c(OCC3CCCN(C)C3)c2)n1` (stereo not drawn) [Compound 413, N^2-(4-methoxy-3-((1-methylpiperidin-3-yl)methoxy)phenyl)-N^4,6-dimethylpyrimidine-2,4-diamine], 0.1 to 1 µM.
The same measure, in the same setting: to `COc1ccc(Nc2nccc(CNC3CCOCC3)n2)cc1OCCCNc1ccccc1` [Compound 365] belongs more than 10 µM; to `CNc1nccc(Nc2ccc(OC)c(OCCCN3CCCC3)c2)n1` [Compound 355], 0.1 to 1 µM; to `CNc1ccnc(Nc2ccc(OC)c(OCC3CCN(C(C)C)C3)c2)n1` (stereo not drawn) [Compound 409, N^2-(3-((1-isopropylpyrrolidin-3-yl)methoxy)-4-methoxyphenyl)-N^4-methylpyrimidine-2,4-diamine], 0.1 to 1 µM.
As for `COc1ccc(Nc2ncc(C)c(NCC3CCN(C(C)=O)CC3)n2)cc1OCCCN1CCCC1` [Compound 55], the IC50 (Table II) was in the range of 1 to 10 µM.
For `CNc1nc(Nc2ccc(OC)c(OCCCN3CCCC3)c2)nc(C)c1F` [Compound 360], the IC50 (Table III) was 0.1 to 1 µM.
Regarding `CNc1ccnc(Nc2ccc(OC)c(OCCCN3CCCC3)c2)n1` [Compound 1, N^2-(4-methoxy-3-(3-(pyrrolidin-1-yl)propoxy)phenyl)-N^4-methylpyrimidine-2,4-diamine], the IC50 (Table II) was less than 0.1 µM.
In the case of `CNc1ccnc(Nc2ccc(OC)c(OCC3CCCN(C)C3)c2)n1` (stereo not drawn) [Compound 412, N^2-(4-methoxy-3-((1-methylpiperidin-3-yl)methoxy)phenyl)-N^4-methylpyrimidine-2,4-diamine], the IC50 (Table III) is 1 to 10 µM.
On the same count and under the same terms, the result for `CNc1ncc(C(F)(F)F)c(Nc2ccc(OC)c(OCCCN3CCCC3)c2)n1` [Compound 359] reads more than 10 µM; that for `CNc1cc(C)nc(Nc2ccc(OC)c(COC3CCN(C)C3)c2)n1` (stereo not drawn) [Compound 421, N^2-(4-methoxy-3-(((1-methylpyrrolidin-3-yl)oxy)methyl)phenyl)-N^4,6-dimethylpyrimidine-2,4-diamine], 1 to 10 µM.
The same measure, in the same setting: the result for `COc1ccc(Nc2nccc(NCC(F)(F)F)n2)cc1OCCCN1CCCC1` [Compound 392] reads 1 to 10 µM.
In the case of `COc1ccc(Nc2nccc(N(C)Cc3ccncc3)n2)cc1OCCCN1CCCC1` [Compound 56], the IC50 (Table II) lay in the range of 1 to 10 µM.
Still for that read-out and setting: the result for `COc1ccc(Nc2nccc(NCC3CCOCC3)n2)cc1OCCCN1CCCC1` [Compound 3, N^2-(4-methoxy-3-(3-(pyrrolidin-1-yl)propoxy)phenyl)-N^4-((tetrahydro-2H-pyran-4-yl)methyl)pyrimidine-2,4-diamine] reads 0.1 to 1 µM.
With `COc1ccc(Nc2cccc3[nH]ccc23)cc1OCCCN1CCCC1` [Compound 265, N-(4-methoxy-3-(3-(pyrrolidin-1-yl)propoxy)phenyl)-1H-indol-4-amine], the IC50 (Table III) is more than 10 µM.
Still for that read-out and setting: the result for `CNc1cc(C(F)(F)F)nc(Nc2ccc(OC)c(OCCCN3CCCC3)c2)n1` [Compound 362] reads more than 10 µM.
